How the values were obtained:
[1] = test system: rabbit; conditions: Prenatal developmental toxicity study, other, Oral, Gavage/Intubation, dose end: 19 GD
[2] = test system: rat; conditions: Combined chronic toxicity/carcinogenicity, sprague dawley, Oral, Feed, dose end: 23 month, group: systemic
[3] = test system: rat; conditions: Prenatal developmental toxicity study, sprague dawley, Oral, Gavage/Intubation, dose end: 16 GD
[4] = test system: dog; conditions: Subchronic oral toxicity in nonrodent, beagle, Feed, dose end: 90 day, group: systemic, systemic / hematology / erythrocyte (rbc) count differential / erythrocyte (rbc) + systemic / hematology / hematocrit (hct) / hematocrit (…
[5] = test system: dog; conditions: Chronic toxicity, beagle, Oral, Feed, dose end: 52 week, group: systemic
[6] = test system: rat; conditions: Multigenerational reproductive toxicity study, other, Oral, Feed, dose end: 2 generation
[7] = test system: mouse; conditions: Subchronic oral toxicity in rodents, cd1, Feed, dose end: 90 day, group: systemic, systemic / organ weight / liver / absolute + systemic / organ weight / liver / relative to body weight + systemic / organ weight / liver / …
[8] = test system: rat; conditions: Subchronic oral toxicity in rodents, sprague dawley, Feed, dose end: 90 day, group: systemic, systemic / clinical chemistry / cytochrome p450, nos / cytochrome p450, nos + systemic / in life observation / body weight / body weight …
[9] = test system: mouse; conditions: Carcinogenicity, cd1, Oral, Feed, dose end: 18 month, group: systemic
[10] = test system: rat; conditions: Carcinogenicity, fischer, Oral, Gavage/Intubation, dose end: 2 year, group: systemic
[11] = test system: rat; conditions: Subchronic oral toxicity in rodents, fischer, Gavage/Intubation, dose end: 13 week, group: systemic
[12] = test system: mouse; conditions: Carcinogenicity, b6c3f1, Oral, Gavage/Intubation, dose end: 2 year, group: systemic
[13] = test system: mouse; conditions: Subchronic oral toxicity in rodents, b6c3f1, Gavage/Intubation, dose end: 13 week, group: systemic
[14] = test system: rat; conditions: Fertility (Segment I); sprague dawley; Oral; Gavage/Intubation; dose end: 1 generation; group: parental; systemic / in life observation / body weight / body weight gain + systemic / in life observation / clinical signs / anogenital staining
[15] = test system: rat; conditions: Sub-acute repeat dose toxicity, sprague dawley, Oral, Gavage/Intubation, dose end: 14 day, group: systemic
[16] = test system: rat; conditions: Subchronic oral toxicity in rodents, sprague dawley, Gavage/Intubation, dose end: 90 day, group: systemic
[17] = test system: dog; conditions: Sub-acute repeat dose toxicity, beagle, Oral, Gavage/Intubation, dose end: 14 day, group: systemic
[18] = test system: rat; conditions: Fertility (Segment I), sprague dawley, Oral, Gavage/Intubation, dose end: 1 generation, group: parental
[19] = test system: rabbit; conditions: Sub-acute repeat dose toxicity, new zealand white, Oral, Gavage/Intubation, dose end: 5 day, group: systemic
[20] = test system: dog; conditions: Subchronic oral toxicity in nonrodent, beagle, Gavage/Intubation, dose end: 92 day, group: systemic
[21] = group: developmental, systemic / in life observation / body weight / fetal weight
[22] = group: maternal, reproductive / reproductive performance / resorptions / resorptions + systemic / in life observation / body weight / body weight gain + …
[23] = systemic / hematology / erythrocyte (rbc) count differential / erythrocyte (rbc) + systemic / hematology / hematocrit (hct) / hematocrit (…
[24] = group: developmental, developmental / developmental malformation / bone / delayed ossification + developmental / developmental malformation / bone / short
[25] = group: maternal, systemic / in life observation / clinical signs / salivation
[26] = group: maternal, systemic / in life observation / clinical signs / salivation + systemic / in life observation / body weight / body weight gain + systemic / …
[27] = systemic / in life observation / body weight / body weight gain + systemic / organ weight / thyroid gland / absolute + systemic / organ …
[28] = systemic / in life observation / clinical signs / salivation
[29] = group: offspring, systemic / in life observation / body weight / offspring (pup) weight + systemic / in life observation / body weight / offspring (pup) …
[30] = group: parental, systemic / in life observation / body weight / body weight + systemic / in life observation / body weight / body weight gain + systemic / in…
[31] = systemic / pathology microscopic / liver / adenoma
[32] = systemic / pathology microscopic / liver / adenoma + systemic / hematology / platelet / platelet + systemic / in life observation / body …
[33] = systemic / pathology microscopic / spleen / leukemia mononuclear
[34] = systemic / pathology microscopic / spleen / leukemia mononuclear + systemic / pathology microscopic / stomach / papilloma + systemic / …
[35] = systemic / in life observation / mortality / mortality + systemic / pathology microscopic / brain / degeneration + systemic / pathology …
[36] = systemic / pathology microscopic / stomach / hyperplasia
[37] = systemic / pathology microscopic / stomach / papilloma + systemic / pathology microscopic / stomach / hyperplasia
[38] = systemic / in life observation / mortality / mortality + systemic / in life observation / body weight / body weight + systemic / pathology …
[39] = systemic / clinical chemistry / [other] / [other] + systemic / clinical chemistry / cytochrome p450, nos / cytochrome p450, nos + systemic…
[40] = systemic / in life observation / clinical signs / salivation + systemic / pathology microscopic / bone / proliferation
[41] = systemic / in life observation / clinical signs / salivation + systemic / pathology microscopic / bone / proliferation + systemic / …
[42] = systemic / clinical chemistry / [other] / [other] + systemic / clinical chemistry / hepatic mixed function oxidase (mfo) assay / hepatic …
[43] = systemic / in life observation / clinical signs / abnormal feces
[44] = systemic / in life observation / clinical signs / anogenital staining + systemic / in life observation / clinical signs / salivation
[45] = systemic / in life observation / body weight / body weight + systemic / in life observation / clinical signs / abnormal feces + systemic / …
[46] = systemic / in life observation / mortality / mortality + systemic / in life observation / body weight / body weight + systemic / in life …
[47] = systemic / clinical chemistry / albumin / albumin + systemic / in life observation / clinical signs / erythema + systemic / clinical …

## COc1cc(OC)nc(Sc2cccc(Cl)c2C(=O)[O-])n1.[Na+] [Pyrithiobac-sodium]
[1]; [21]
  LEL: 1000 mg/kg/day
  LOAEL: 1000 mg/kg/day
  NEL: 300 mg/kg/day
  NOAEL: 300 mg/kg/day
[1]; [22]
  LEL: 1000 mg/kg/day
  LOAEL: 1000 mg/kg/day
  NEL: 300 mg/kg/day
  NOAEL: 300 mg/kg/day
[2]; systemic / clinical chemistry / sodium / sodium
  LEL: 1.36 mg/kg/day
[2]; systemic / clinical chemistry / sodium / sodium + systemic / pathology microscopic / kidney / adenoma + systemic / in life observation / …
  NEL: 0.274 mg/kg/day
[2]; [23]
  LOAEL: 200 mg/kg/day
  NOAEL: 58.7 mg/kg/day
[3]; [24]
  LEL: 1800 mg/kg/day
  LOAEL: 1800 mg/kg/day
  NEL: 600 mg/kg/day
  NOAEL: 600 mg/kg/day
[3]; [25]
  LEL: 200 mg/kg/day
  LOAEL: 200 mg/kg/day
[3]; [26]
  NEL: 30 mg/kg/day
  NOAEL: 30 mg/kg/day
[4]
  LEL: 626 mg/kg/day
  LOAEL: 626 mg/kg/day
  NEL: 165 mg/kg/day
  NOAEL: 165 mg/kg/day
[5]; [27]
  LOAEL: 580 mg/kg/day
  NOAEL: 143 mg/kg/day
[5]; [28]
  LEL: 2.8 mg/kg/day
  NEL: < 2.8 mg/kg/day
[6]; group: offspring, systemic / in life observation / body weight / offspring (pup) weight
  LOAEL: 614 mg/kg/day
[6]; [29]
  LEL: 614 mg/kg/day
  NEL: 119 mg/kg/day
  NOAEL: 119 mg/kg/day
[6]; [30]
  LOAEL: 439 mg/kg/day
  NOAEL: 85.6 mg/kg/day
[6]; group: parental, systemic / in life observation / food consumption / food efficiency
  LEL: 119 mg/kg/day
[6]; group: parental, systemic / in life observation / food consumption / food efficiency + systemic / in life observation / body weight / body weight + systemic…
  NEL: 1.93 mg/kg/day
[7]
  LEL: 263 mg/kg/day
  LOAEL: 263 mg/kg/day
  NEL: 83.1 mg/kg/day
  NOAEL: 83.1 mg/kg/day
[8]
  LEL: 31.8 mg/kg/day
  LOAEL: 31.8 mg/kg/day
  NEL: 3.25 mg/kg/day
  NOAEL: 3.25 mg/kg/day
[9]; [31]
  LEL: 21.4 mg/kg/day
  LOAEL: 21.4 mg/kg/day
[9]; [32]
  NEL: 1.43 mg/kg/day
  NOAEL: 1.43 mg/kg/day

## O=Cc1ccccc1 [Benzaldehyde]
[10]; [33]
  LEL: 200 mg/kg/day
  NEL: < 200 mg/kg/day
[10]; [34]
  LOAEL: > 400 mg/kg/day
  NOAEL: ≥ 400 mg/kg/day
[11]; systemic / in life observation / mortality / mortality
  LEL: 400 mg/kg/day
[11]; [35]
  LOAEL: > 800 mg/kg/day
  NEL: 200 mg/kg/day
  NOAEL: ≥ 800 mg/kg/day
[12]; [36]
  LOAEL: > 400 mg/kg/day
  NOAEL: ≥ 400 mg/kg/day
[12]; [37]
  LEL: 300 mg/kg/day
  NEL: < 300 mg/kg/day
[13]; systemic / in life observation / body weight / body weight + systemic / in life observation / mortality / mortality + systemic / pathology …
  NEL: 300 mg/kg/day
[13]; systemic / in life observation / body weight / body weight + systemic / pathology microscopic / kidney / degeneration
  LEL: 600 mg/kg/day
[13]; [38]
  LOAEL: > 1200 mg/kg/day
  NOAEL: ≥ 1200 mg/kg/day

## O=C(NO)C1(NS(=O)(=O)c2ccc(Oc3ccc(F)cc3)cc2)CCOCC1
[14]
  LEL: 1000 mg/kg/day
  LOAEL: > 1000 mg/kg/day
  NEL: 50 mg/kg/day
  NOAEL: ≥ 1000 mg/kg/day
[15]; [39]
  LOAEL: > 1000 mg/kg/day
  NOAEL: ≥ 1000 mg/kg/day
[15]; [28]
  LEL: 50 mg/kg/day
[15]; systemic / in life observation / clinical signs / salivation + systemic / in life observation / clinical signs / urine staining - perineum…
  NEL: 10 mg/kg/day
[16]; [40]
  LEL: 10 mg/kg/day
  NEL: < 10 mg/kg/day
[16]; [41]
  LOAEL: > 1000 mg/kg/day
  NOAEL: ≥ 1000 mg/kg/day
[17]; [42]
  LOAEL: > 400 mg/kg/day
  NOAEL: ≥ 400 mg/kg/day
[17]; [43]
  LEL: 10 mg/kg/day
  NEL: < 10 mg/kg/day
[18]; systemic / in life observation / clinical signs / anogenital staining
  LEL: 50 mg/kg/day
[18]; [44]
  LOAEL: > 1000 mg/kg/day
  NEL: 10 mg/kg/day
  NOAEL: ≥ 1000 mg/kg/day
[19]; [45]
  LEL: 60 mg/kg/day
  NEL: < 60 mg/kg/day
[19]; [46]
  LOAEL: > 600 mg/kg/day
  NOAEL: ≥ 600 mg/kg/day
[20]; systemic / clinical chemistry / albumin / albumin + systemic / in life observation / clinical signs / erythema
  NEL: 10 mg/kg/day
[20]; [47]
  LOAEL: > 400 mg/kg/day
  NOAEL: ≥ 400 mg/kg/day
[20]; systemic / in life observation / clinical signs / erythema + systemic / clinical chemistry / albumin / albumin + systemic / clinical …
  LEL: 100 mg/kg/day

Source: EPA's ToxRefDB 2
